Measurements from ChEMBL document CHEMBL1764973 (J Med Chem, 2011).

Key:
[1] = Binding affinity to benzodiazepine binding site of GABAA receptor
Cannabinoid receptor 2 = Cannabinoid receptor 2 (Homo sapiens, UniProt P34972); assay: Displacement of [3H]CP55940 from CB2 receptor
Cannabinoid receptor 1 = Cannabinoid receptor 1 (Homo sapiens, UniProt P21554); assay: Displacement of [3H]CP55940 from CB1 receptor
Translocator protein = Translocator protein (Rattus norvegicus, UniProt P16257)
[2] = biological target: Muscarinic acetylcholine receptor M1 (Homo sapiens) (UniProt P11229); settings: 10 uM
[3] = biological target: 5-hydroxytryptamine receptor 1E (Homo sapiens) (UniProt P28566); settings: 10 uM
[4] = biological target: D(4) dopamine receptor (Homo sapiens) (UniProt P21917); settings: 10 uM
[5] = biological target: Alpha-1B adrenergic receptor (Homo sapiens) (UniProt P35368); settings: 10 uM
[6] = biological target: Mu-type opioid receptor (Homo sapiens) (UniProt P35372); settings: 10 uM
[7] = biological target: Muscarinic acetylcholine receptor M5 (Homo sapiens) (UniProt P08912); settings: 10 uM
[8] = biological target: Delta-type opioid receptor (Homo sapiens) (UniProt P41143); settings: 10 uM
[9] = biological target: 5-hydroxytryptamine receptor 3A (Homo sapiens) (UniProt P46098); settings: 10 uM
[10] = biological target: T1, 5-hydroxytryptamine receptor 1D (Homo sapiens, UniProt P28221); settings: 10 uM
[11] = biological target: T1, 5-hydroxytryptamine receptor 1D; assay: Binding affinity to 5HT1D receptor by radioligand binding assay
[12] = biological target: Histamine H3 receptor (Homo sapiens) (UniProt Q9Y5N1); settings: 10 uM
[13] = biological target: Alpha-2B adrenergic receptor (Homo sapiens) (UniProt P18089); settings: 10 uM
[14] = biological target: Vasopressin V1b receptor (Homo sapiens) (UniProt P47901); settings: 10 uM
[15] = biological target: Beta-3 adrenergic receptor (Homo sapiens) (UniProt P13945); settings: 10 uM
[16] = biological target: 5-hydroxytryptamine receptor 6 (Homo sapiens) (UniProt P50406); settings: 10 uM
[17] = biological target: 5-hydroxytryptamine receptor 2A (Homo sapiens) (UniProt P28223); settings: 10 uM
[18] = biological target: Alpha-2C adrenergic receptor (Homo sapiens) (UniProt P18825); settings: 10 uM
[19] = biological target: Alpha-1A adrenergic receptor (Homo sapiens) (UniProt P35348); settings: 10 uM
[20] = biological target: Histamine H1 receptor (Homo sapiens) (UniProt P35367); settings: 10 uM
[21] = biological target: D(1A) dopamine receptor (Homo sapiens) (UniProt P21728); settings: 10 uM
[22] = biological target: Muscarinic acetylcholine receptor M4 (Homo sapiens) (UniProt P08173); settings: 10 uM
[23] = biological target: 5-hydroxytryptamine receptor 5A (Homo sapiens) (UniProt P47898); settings: 10 uM
[24] = biological target: Sigma non-opioid intracellular receptor 1 (Homo sapiens) (UniProt Q99720); settings: 10 uM
[25] = biological target: 5-hydroxytryptamine receptor 1A (Homo sapiens) (UniProt P08908); settings: 10 uM
[26] = biological target: Histamine H2 receptor (Homo sapiens) (UniProt P25021); settings: 10 uM
[27] = biological target: Beta-1 adrenergic receptor (Homo sapiens) (UniProt P08588); settings: 10 uM
[28] = biological target: 5-hydroxytryptamine receptor 7 (Homo sapiens) (UniProt P34969); settings: 10 uM
[29] = biological target: Alpha-2A adrenergic receptor (Homo sapiens) (UniProt P08913); settings: 10 uM
[30] = biological target: Sodium-dependent noradrenaline transporter (Homo sapiens) (UniProt P23975); settings: 10 uM
[31] = biological target: Muscarinic acetylcholine receptor M2 (Homo sapiens) (UniProt P08172); settings: 10 uM
[32] = biological target: Histamine H4 receptor (Homo sapiens) (UniProt Q9H3N8); settings: 10 uM
[33] = biological target: Kappa-type opioid receptor (Homo sapiens, UniProt P41145); assay: Binding affinity to kappa opioid receptor by radioligand binding assay
[34] = biological target: Vasopressin V1a receptor (Homo sapiens) (UniProt P37288); settings: 10 uM
D(1B) dopamine receptor = D(1B) dopamine receptor (Homo sapiens, UniProt P21918); assay: Binding affinity to opamine D5 receptor by radioligand binding assay
[35] = biological target: Muscarinic acetylcholine receptor M3 (Homo sapiens) (UniProt P20309); settings: 10 uM
[36] = biological target: Vasopressin V2 receptor (Homo sapiens) (UniProt P30518); settings: 10 uM
[37] = biological target: D(2) dopamine receptor (Homo sapiens) (UniProt P14416); settings: 10 uM
[38] = biological target: D(3) dopamine receptor (Homo sapiens) (UniProt P35462); settings: 10 uM
[39] = biological target: 5-hydroxytryptamine receptor 2C (Homo sapiens) (UniProt P28335); settings: 10 uM
[40] = biological target: 5-hydroxytryptamine receptor 2B (Homo sapiens) (UniProt P41595); settings: 10 uM
[41] = biological target: Sodium-dependent serotonin transporter (Homo sapiens) (UniProt P31645); settings: 10 uM
[42] = biological target: Sodium-dependent dopamine transporter (Homo sapiens) (UniProt Q01959); settings: 10 uM

Cannabinoid receptor 1, sequence (P21554 whole entry): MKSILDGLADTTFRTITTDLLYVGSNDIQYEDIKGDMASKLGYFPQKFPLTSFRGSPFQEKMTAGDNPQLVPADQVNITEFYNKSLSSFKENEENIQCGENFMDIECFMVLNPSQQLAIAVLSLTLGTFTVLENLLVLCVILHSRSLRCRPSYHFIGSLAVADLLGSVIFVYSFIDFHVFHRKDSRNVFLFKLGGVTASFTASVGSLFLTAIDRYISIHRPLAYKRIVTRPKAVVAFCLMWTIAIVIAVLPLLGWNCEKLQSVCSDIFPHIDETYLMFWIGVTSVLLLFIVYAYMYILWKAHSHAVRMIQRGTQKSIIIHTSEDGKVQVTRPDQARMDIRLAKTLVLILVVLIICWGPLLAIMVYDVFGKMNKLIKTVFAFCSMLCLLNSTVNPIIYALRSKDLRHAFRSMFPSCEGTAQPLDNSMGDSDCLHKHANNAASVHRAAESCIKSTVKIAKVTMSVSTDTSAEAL
Cannabinoid receptor 2, sequence (P34972 whole entry): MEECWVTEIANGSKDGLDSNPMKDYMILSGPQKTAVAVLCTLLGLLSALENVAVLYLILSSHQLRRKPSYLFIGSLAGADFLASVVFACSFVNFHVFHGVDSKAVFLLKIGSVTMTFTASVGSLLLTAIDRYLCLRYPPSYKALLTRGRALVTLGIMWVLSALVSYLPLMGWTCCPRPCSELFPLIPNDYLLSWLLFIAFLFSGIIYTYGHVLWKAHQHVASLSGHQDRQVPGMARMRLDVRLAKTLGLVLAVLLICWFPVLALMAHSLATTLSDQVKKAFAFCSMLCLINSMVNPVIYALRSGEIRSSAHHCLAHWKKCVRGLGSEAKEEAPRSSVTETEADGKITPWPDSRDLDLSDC
Translocator protein, sequence (P16257 whole entry, looked up): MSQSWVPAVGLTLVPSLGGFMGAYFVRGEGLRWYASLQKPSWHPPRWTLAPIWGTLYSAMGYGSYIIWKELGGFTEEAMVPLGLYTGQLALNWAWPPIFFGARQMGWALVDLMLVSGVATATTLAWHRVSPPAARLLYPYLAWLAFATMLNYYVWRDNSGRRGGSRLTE
T1 sequence (P28221 whole entry): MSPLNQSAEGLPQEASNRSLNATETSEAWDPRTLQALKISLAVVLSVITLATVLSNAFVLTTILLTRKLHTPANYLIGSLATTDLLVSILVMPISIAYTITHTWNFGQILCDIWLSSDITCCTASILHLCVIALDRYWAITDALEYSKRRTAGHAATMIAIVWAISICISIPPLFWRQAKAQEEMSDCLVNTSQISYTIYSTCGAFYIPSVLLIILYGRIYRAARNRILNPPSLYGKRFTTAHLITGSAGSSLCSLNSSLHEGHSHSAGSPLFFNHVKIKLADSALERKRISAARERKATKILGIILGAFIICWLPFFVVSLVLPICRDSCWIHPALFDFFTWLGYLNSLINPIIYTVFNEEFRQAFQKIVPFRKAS
Sodium-dependent noradrenaline transporter (Homo sapiens), sequence (P23975 whole entry): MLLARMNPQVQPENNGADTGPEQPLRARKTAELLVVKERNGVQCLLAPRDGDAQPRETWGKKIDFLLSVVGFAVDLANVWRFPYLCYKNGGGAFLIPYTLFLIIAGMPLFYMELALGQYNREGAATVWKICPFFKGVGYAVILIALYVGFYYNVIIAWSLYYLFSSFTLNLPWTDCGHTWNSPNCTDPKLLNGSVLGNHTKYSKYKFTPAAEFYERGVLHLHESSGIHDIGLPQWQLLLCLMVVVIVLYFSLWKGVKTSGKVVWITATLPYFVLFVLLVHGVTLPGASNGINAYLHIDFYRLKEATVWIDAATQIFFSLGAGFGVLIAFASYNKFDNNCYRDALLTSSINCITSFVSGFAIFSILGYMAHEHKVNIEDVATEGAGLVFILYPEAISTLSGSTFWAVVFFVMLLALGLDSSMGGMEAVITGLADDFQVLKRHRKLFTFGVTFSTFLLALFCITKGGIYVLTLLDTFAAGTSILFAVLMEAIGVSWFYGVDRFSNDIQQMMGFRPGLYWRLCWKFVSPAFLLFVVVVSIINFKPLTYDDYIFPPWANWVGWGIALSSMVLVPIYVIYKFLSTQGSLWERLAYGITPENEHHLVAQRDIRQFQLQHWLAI
5-hydroxytryptamine receptor 5A (Homo sapiens), sequence (P47898 whole entry): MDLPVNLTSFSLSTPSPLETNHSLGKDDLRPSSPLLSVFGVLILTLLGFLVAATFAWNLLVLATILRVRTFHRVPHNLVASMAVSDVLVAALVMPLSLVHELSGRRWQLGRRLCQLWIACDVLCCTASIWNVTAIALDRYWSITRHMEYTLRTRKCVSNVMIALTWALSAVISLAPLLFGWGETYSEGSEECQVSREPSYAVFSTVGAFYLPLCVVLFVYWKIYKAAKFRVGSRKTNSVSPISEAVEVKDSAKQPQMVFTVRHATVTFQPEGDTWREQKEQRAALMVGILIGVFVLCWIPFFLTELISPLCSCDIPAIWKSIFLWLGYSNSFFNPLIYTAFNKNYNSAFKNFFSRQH
5-hydroxytryptamine receptor 2A (Homo sapiens), sequence (P28223 whole entry): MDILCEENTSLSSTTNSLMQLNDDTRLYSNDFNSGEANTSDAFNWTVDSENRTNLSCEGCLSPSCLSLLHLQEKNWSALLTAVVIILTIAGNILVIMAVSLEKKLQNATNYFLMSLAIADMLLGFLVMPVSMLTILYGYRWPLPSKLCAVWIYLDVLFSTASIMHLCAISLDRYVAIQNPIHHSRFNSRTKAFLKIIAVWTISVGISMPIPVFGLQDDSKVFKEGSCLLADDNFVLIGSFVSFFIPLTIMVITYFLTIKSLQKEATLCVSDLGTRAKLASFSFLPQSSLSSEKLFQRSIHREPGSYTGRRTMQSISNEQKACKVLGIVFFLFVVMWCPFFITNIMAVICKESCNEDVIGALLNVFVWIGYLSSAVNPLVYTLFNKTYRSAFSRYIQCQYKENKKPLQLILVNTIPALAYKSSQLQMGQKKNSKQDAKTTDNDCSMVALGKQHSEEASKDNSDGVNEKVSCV
Muscarinic acetylcholine receptor M1 (Homo sapiens), sequence (P11229 whole entry): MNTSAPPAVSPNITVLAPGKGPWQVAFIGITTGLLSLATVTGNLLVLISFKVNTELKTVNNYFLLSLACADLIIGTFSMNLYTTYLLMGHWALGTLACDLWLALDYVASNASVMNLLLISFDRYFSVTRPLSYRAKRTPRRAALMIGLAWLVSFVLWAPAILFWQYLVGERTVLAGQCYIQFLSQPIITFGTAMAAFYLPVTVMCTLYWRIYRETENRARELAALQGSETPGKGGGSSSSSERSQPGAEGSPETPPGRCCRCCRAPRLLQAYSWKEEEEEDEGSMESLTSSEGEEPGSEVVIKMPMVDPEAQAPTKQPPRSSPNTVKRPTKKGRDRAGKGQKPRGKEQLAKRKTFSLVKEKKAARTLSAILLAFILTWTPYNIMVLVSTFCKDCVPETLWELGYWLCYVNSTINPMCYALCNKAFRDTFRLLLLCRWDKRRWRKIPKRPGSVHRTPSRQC
5-hydroxytryptamine receptor 3A (Homo sapiens), sequence (P46098 whole entry): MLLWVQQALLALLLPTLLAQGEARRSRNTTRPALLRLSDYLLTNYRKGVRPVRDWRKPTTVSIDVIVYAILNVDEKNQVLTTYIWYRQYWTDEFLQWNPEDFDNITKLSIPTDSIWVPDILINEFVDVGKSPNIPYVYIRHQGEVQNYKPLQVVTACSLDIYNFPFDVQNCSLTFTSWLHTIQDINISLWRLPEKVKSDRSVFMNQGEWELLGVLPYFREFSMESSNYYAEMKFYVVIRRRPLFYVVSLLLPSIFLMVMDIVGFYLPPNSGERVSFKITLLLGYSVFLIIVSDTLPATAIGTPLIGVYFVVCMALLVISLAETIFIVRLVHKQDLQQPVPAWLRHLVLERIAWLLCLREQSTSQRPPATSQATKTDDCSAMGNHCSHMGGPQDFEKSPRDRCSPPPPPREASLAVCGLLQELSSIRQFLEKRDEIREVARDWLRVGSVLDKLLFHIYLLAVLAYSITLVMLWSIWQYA
Sigma non-opioid intracellular receptor 1 (Homo sapiens), sequence (Q99720 whole entry): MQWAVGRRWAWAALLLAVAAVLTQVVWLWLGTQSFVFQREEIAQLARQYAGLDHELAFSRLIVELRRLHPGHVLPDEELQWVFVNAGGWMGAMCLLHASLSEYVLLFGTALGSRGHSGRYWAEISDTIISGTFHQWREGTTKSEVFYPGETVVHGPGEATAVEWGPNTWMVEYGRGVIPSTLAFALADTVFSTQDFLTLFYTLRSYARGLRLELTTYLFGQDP
D(4) dopamine receptor (Homo sapiens), sequence (P21917 whole entry): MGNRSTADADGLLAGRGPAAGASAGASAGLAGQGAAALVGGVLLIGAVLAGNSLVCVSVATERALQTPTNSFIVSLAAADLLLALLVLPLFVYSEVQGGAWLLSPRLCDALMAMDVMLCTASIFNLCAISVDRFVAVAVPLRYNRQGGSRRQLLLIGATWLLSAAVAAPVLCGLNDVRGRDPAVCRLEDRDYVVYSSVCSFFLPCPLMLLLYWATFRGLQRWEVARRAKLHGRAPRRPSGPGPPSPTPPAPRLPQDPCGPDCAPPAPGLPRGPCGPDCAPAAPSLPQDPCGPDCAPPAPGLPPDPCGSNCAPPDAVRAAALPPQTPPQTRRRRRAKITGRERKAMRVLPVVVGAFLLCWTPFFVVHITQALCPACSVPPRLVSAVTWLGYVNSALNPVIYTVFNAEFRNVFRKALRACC
D(1B) dopamine receptor, sequence (P21918 whole entry): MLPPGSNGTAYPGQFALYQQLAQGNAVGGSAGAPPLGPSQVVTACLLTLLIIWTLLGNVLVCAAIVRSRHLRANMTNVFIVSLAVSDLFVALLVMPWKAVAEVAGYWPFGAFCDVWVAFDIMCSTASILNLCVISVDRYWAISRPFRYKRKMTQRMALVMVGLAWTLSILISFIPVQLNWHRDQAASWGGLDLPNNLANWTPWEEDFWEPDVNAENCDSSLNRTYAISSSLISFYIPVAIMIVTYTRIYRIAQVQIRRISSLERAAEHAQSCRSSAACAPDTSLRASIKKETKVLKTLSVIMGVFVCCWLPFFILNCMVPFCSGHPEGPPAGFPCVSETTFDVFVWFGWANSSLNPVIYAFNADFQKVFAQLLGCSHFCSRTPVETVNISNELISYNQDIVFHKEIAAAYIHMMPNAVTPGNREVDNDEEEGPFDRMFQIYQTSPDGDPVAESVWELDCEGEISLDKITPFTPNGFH

For `CCC(C)N(C)C(=O)c1cc2ccccc2c(-c2ccccc2Cl)n1` (stereo not drawn) [PK-11195], the Ki [1] was > 10 µM.

With `Cc1c(C(=O)NC2(C#N)CCOCC2)nn(-c2ccccc2Br)c1-c1cccc(F)c1` the Ki (Cannabinoid receptor 2) was > 10 µM, the Ki [1] was > 10 µM and the Ki (Cannabinoid receptor 1) was > 10 µM.

For `Cc1c(C(=O)NC2(C#N)CCCCC2)nn(-c2ccccc2Br)c1-c1ccccc1`, the Ki [1] was > 10 µM.

With `COc1ccc(-c2c(C#N)c(C(=O)NC3(C#N)CCOCC3)nn2-c2ccccc2I)cc1` the Ki (Cannabinoid receptor 2) was 2.37 µM, the Ki [1] was > 10 µM and the Ki (Cannabinoid receptor 1) was > 10 µM. The Ki (Translocator protein) was 1.92 µM.

In the case of `N#CC1(NC(=O)c2cc(-c3ccccc3)n(-c3ccccc3Br)n2)CCOCC1`, the Ki (Cannabinoid receptor 2) is reported as > 10 µM, the Ki [1] is reported as > 10 µM and the Ki (Cannabinoid receptor 1) is reported as 0.297 µM. It also gave a Ki (Translocator protein) of 3.11 µM.

In the case of `Cc1c(C(=O)NC2(C#N)CCOCC2)nn(-c2cccc(Br)c2)c1-c1ccccc1`, the Ki [1] is reported as > 10 µM.

For `Cc1c(C(=O)NC2(C#N)CCOCC2)nn(-c2ccccc2I)c1-c1ccccc1`, the Ki [1] was > 10 µM.

With `N#Cc1c(C(=O)NC2(C#N)CCOCC2)nn(-c2ccccc2Br)c1-c1ccccc1` the Ki (Cannabinoid receptor 2) was > 10 µM, the Ki [1] was > 10 µM and the Ki (Cannabinoid receptor 1) was 0.437 µM. It also gave a Ki (Translocator protein) of 3.69 µM.

For `Cc1c(C(=O)NC2(C#N)CCOCC2)nn(-c2ccccc2Cl)c1-c1ccccc1`, the Ki (Cannabinoid receptor 2) was > 10 µM, the Ki [1] was > 10 µM and the Ki (Cannabinoid receptor 1) was > 10 µM. For the same molecule, the Ki (Translocator protein) was 0.436 µM.

For `COc1ccc(-c2c(C)c(C(=O)NC3(C#N)CCOCC3)nn2-c2ccccc2F)cc1`, the Ki (Cannabinoid receptor 2) was 2.46 µM, the Ki [1] was > 10 µM and the Ki (Cannabinoid receptor 1) was 0.115 µM.

For `Cc1c(C(=O)NC2(C#N)CCOCC2)nn(-c2ccccc2-c2ccccc2)c1-c1ccccc1`, the Ki [1] was > 10 µM.

With `Cc1c(C(=O)NC2(C#N)CCOCC2)nn(-c2ccc(Br)cc2)c1-c1ccccc1` the Ki (Cannabinoid receptor 2) was 0.655 µM, the Ki [1] was > 10 µM and the Ki (Cannabinoid receptor 1) was 0.259 µM.

In the case of `COc1ccc(-c2c(C)c(C(=O)NC3(C#N)CCCCC3)nn2-c2ccccc2Br)cc1`, the inhibition [2] is reported as < 50%, the inhibition [3] is reported as < 50% and the inhibition [4] is reported as < 50%. The inhibition [5] was < 50%, the inhibition [6] was < 50% and the inhibition [7] was < 50%. The inhibition [8] was < 50%, the inhibition [9] was < 50% and the inhibition [10] was < 50%. For the same molecule, the Ki [11] was > 10 µM, the inhibition [12] was < 50% and the inhibition [13] was < 50%. For the same molecule, the inhibition [14] was < 50%, the Ki (Cannabinoid receptor 2) was 2.75 µM and the inhibition [15] was < 50%. For the same molecule, the inhibition [16] was < 50%, the inhibition [17] was < 50% and the inhibition [18] was < 50%. For the same molecule, the inhibition [19] was < 50%, the inhibition [20] was < 50% and the inhibition [21] was < 50%. For the same molecule, the Ki [1] was > 10 µM, the inhibition [22] was < 50% and the inhibition [23] was < 50%. For the same molecule, the inhibition [24] was < 50%, the inhibition [25] was < 50% and the Ki (Cannabinoid receptor 1) was 0.0157 µM. For the same molecule, the inhibition [26] was < 50%, the inhibition [27] was < 50% and the inhibition [28] was < 50%. For the same molecule, the inhibition [29] was < 50%, the inhibition [30] was < 50% and the inhibition [31] was < 50%. The inhibition [32] was < 50%, the Ki [33] was 0.597 µM and the Ki (Translocator protein) was 0.279 µM. The inhibition [34] was < 50%, the Ki (D(1B) dopamine receptor) was > 10 µM and the inhibition [35] was < 50%. The inhibition [36] was < 50%, the inhibition [37] was < 50% and the inhibition [38] was < 50%. For the same molecule, the inhibition [39] was < 50%, the inhibition [40] was < 50% and the inhibition [41] was < 50%. For the same molecule, the inhibition [42] was < 50%.

With `COc1ccc(-c2c(Br)c(C(=O)NC3(C#N)CCOCC3)nn2-c2cccc(Br)c2)cc1` the Ki [1] was > 10 µM.

With `Cc1c(C(=O)NN2CCCCC2)nn(-c2ccc(Cl)cc2Cl)c1-c1ccc(Cl)cc1` [RIMONABANT] the Ki [1] was > 10 µM.

For `Cc1c(C(=O)N(C)C2(C#N)CCOCC2)nn(-c2ccccc2Cl)c1-c1ccccc1`, the Ki (Cannabinoid receptor 2) was > 10 µM, the Ki [1] was > 10 µM and the Ki (Cannabinoid receptor 1) was > 10 µM. It also gave a Ki (Translocator protein) of 0.88 µM.

With `Cc1c(C(=O)NC2(C#N)CCOCC2)nn(-c2ccccc2Br)c1-c1ccccc1` the Ki [1] was > 10 µM.

For `Cc1c(C(=O)NC2(C#N)CCOCC2)nn(-c2ccccc2F)c1-c1ccccc1`, the Ki [1] was > 10 µM.

In the case of `COc1ccc(-c2c(C)c(C(=O)NC3(C#N)CCOCC3)nn2-c2cccc(Br)c2)cc1`, the Ki (Cannabinoid receptor 2) is reported as 0.234 µM, the Ki [1] is reported as > 10 µM and the Ki (Cannabinoid receptor 1) is reported as 0.68 µM.

With `Cc1c(C(=O)NC2(C#N)CCOCC2)nn(-c2ccccc2Br)c1-c1ccc(F)cc1` the Ki [1] was > 10 µM.
